The values below come from patent US11938198B2, “Treatment of heart disease by disruption of the anchoring of PP2A” (University of Miami, priority 2019, dated 2024).

The test system of test [1] is mAKAP-associated phosphatase (PP2A). The test can be described thus: Phosphatase activity of mAKAP complexes immunoprecipitated from adult rat heart extracts ([32P]histone). As to conditions: 50 μM CPT-cAMP, 5 min pre-incubation. It counts as biochemical. On the procedure:
(§1) For immunoprecipitation of endogenous, native mAKAP complexes, adult rat hearts (Pel-Freeze) were homogenized in 10 ml HSE buffer. After centrifugation at 15,000×g for 25 minutes, clarified extracts were immunoprecipitated as above.
(§2) Phosphatase Assay—Phosphatase activity was measured according to the method of Ahn et al. using ^32P-labeled histone as substrate (Ahn et al. 2007). Histone was radiolabeled in reactions containing 250 mM MOPS, pH 7.4, 2.5 mM MgAc, 100 mM β-mercaptoethanol, purified PKA catalytic subunit, 1 μM ATP, 20 μM histone, and 1 mCi [γ-^32P]ATP (6000 Ci/mmol). The reaction was terminated by the addition of 50% TCA, and [^32P]histone was purified from free radionucleotide by centrifugation. The [^32P]histone pellet was washed with 1 ml of ether/ethanol/HCL (4:1:0.1) once and 1 ml of ether/ethanol (4:1) three times. The substrate was then suspended in 200 μl PP2A assay buffer (25 mM Tris, pH 7.4, 1 mM DTT, and 10 mM MgCl2) before precipitation with 50% TCA. After repeated washing, the [^32P]histone was suspended in 200 μl PP2A buffer.
(§3) To measure phosphatase activity, immunoprecipitated protein complexes were washed twice in HSE buffer and once in PP2A reaction buffer. […] TCA supernatants containing released ^32PO4 were measured by scintillation counting.

The next test has as its system PDE4D3 Ser-54. Kind of test: PDE4D3 Ser-54 phosphorylation in mAKAP immunoprecipitates from transfected HEK293 cells (phospho-specific immunoblot). It counts as cell-based. As to conditions: HEK293 cells over-expressing mAKAP and PDE4D3; OA or 500 μM CsA for 30 min. Background: A western blot detects proteins with antibodies after separation by electrophoresis.
In another test the test system is SRF Ser^103. Kind of test: SRF Ser103 phosphorylation in neonatal rat ventricular myocytes (NRVM). It counts as cell-based. The note with it: 1 hour, 1 μM OA or 1 μg/ml CsA. The procedure: Neonatal Rat Ventricular Myocyte Culture: 1-3 day old Sprague-Dawley rats were decapitated, and the excised hearts placed in 1× ADS Buffer (116 mM NaCl, 20 mM HEPES, 1 mM NaH2PO4, 5.5 mM glucose, 5.4 mM KCl, 0.8 mM MgSO4, pH 7.35). The atria were carefully removed and the blood washed away. The ventricles were minced and incubated with 15 mL 1× ADS Buffer containing 3.3 mg type II collagenase (Worthington, 230 U/mg) and 9 mg Pancreatin (Sigma) at 37° C. with gentle shaking. After 15 minutes, the dissociated cardiac myocytes were separated by centrifugation at 50 g for 1 minute, resuspended in 4 mL horse serum and incubated at 37° C. with occasional agitation. The steps for enzymatic digestion and isolation of myocytes were repeated 10-12 times to maximize yield. The myocytes were pooled and spun down again at 50 g for 2 minutes and resuspended in Maintenance Medium (DMEM:M199, 4:1) supplemented with 10% horse serum and 5% fetal bovine serum. To remove any contaminating fibroblasts, the cells were pre-plated for 1 hour before plating on gelatin-coated tissue culture plastic ware. This procedure yields >90% pure cardiac myocytes. After 1 day culture, the media was changed to maintenance medium containing 0.1 mM bromodeoxyuridine to suppress fibroblast growth. […]

For a further test, the system named is mAKAP-bound PDE4D3. Kind of test: PDE activity associated with mAKAP immunoprecipitates from transfected HEK293 cells ([3H]cAMP). It counts as cell-based. As to conditions: 300 μM OA 30 min then 5 μM Fsk 10 min. On the procedure: Immunoprecipitation—HEK293 cells were used in this project as a heterologous system lacking mAKAP in which the various wildtype and mutant proteins could be easily expressed. Cells cultured on 60 mm plates were transfected at 50%-70% confluency by the calcium phosphate method, using 6 μg of each DNA construct per plate. Cells were harvested 24 hours after transfection in 0.5 ml HSE buffer (HEPES, pH 7.4, 150 mM NaCl, 5 mM EDTA, 1% Triton X-100 and protease inhibitors). Supernatants were incubated with 3 μg antibody and 15 μl prewashed protein A- or G-agarose beads. Following overnight incubation at 4° C., the immunoprecipitates were washed three times with the same buffer. Bound proteins were analyzed by immunoblotting. […]
As phosphorylation of PDE4D3 Ser-54 increases phosphodiesterase activity 2 fold (Sette and Conti 1996), whether OA treatment would also increase the activity of mAKAP-bound PDE4D3 was tested. mAKAP complexes were immunoprecipitated from transfected HEK293 cells and assayed for associated phosphodiesterase activity (FIG. 8B). mAKAP-associated phosphodiesterase activity in untreated cells was detected only when mAKAP was co-expressed with PDE4D3 (FIG. 8B, bar 1, and data not shown), consistent with a previous observation that PDE4D3 accounts for all of the phosphodiesterase activity associated with mAKAP in cardiac myocytes (Dodge et al. 2001).

The test system of test [2] is mAKAP-associated phosphodiesterase. The test can be described thus: PDE activity of native mAKAP complexes immunoprecipitated from adult rat heart extracts. It counts as biochemical. On the procedure: as §1
PDE assay—PDE activity associated with immunoprecipitated protein complexes was assayed according to the method by Beavo et al. (Beavo, Bechtel, and Krebs 1974). Samples were assayed in 45 μl PDE buffer A (100 mM MOPS, pH 7.5, 4 mM EGTA, 1.0 mg/ml bovine serum albumin) and 50 μl PDE buffer B [100 mM MOPS, pH 7.5, 75 mM MgAc, 1 μM cAMP and 100,000 cpm [^3H]cAMP (Dupont, NEN)]. Inhibitors were included as indicated.

In test [3] the target is T1, mAKAP-associated phosphatase (PP2A) (Rattus norvegicus, UniProt P63331).
T1 construct: For immunoprecipitation of endogenous, native mAKAP complexes; tissue Pel-Freeze; host or cells: adult rat heart
T1 sequence (P63331 whole entry): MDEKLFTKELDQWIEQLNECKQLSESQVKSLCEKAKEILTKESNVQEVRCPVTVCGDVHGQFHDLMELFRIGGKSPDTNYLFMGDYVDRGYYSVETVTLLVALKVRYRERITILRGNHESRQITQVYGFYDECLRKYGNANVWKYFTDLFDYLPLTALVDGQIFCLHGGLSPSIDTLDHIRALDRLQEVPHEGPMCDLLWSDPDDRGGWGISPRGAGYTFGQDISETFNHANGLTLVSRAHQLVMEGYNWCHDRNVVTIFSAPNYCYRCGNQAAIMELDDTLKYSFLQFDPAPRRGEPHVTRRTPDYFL
The test can be described thus: Phosphatase activity of mAKAP complexes immunoprecipitated from adult rat heart extracts ([32P]histone). It counts as biochemical. As to conditions: 10 nM. The procedure:
as §1, §2, §3

For `Nc1ncnc2c1nc(Sc1ccc(Cl)cc1)n2[C@@H]1O[C@@H]2COP(=O)([O-])O[C@H]2[C@H]1O.[Na+]` [CPT-cAMP, 8-(4-chlorophenylthio)adenosine 3′,5′-cyclic monophosphate], the “increase of mAKAP-associated phosphatase activity” value in test [1] amounted to 2.5 fold.
Regarding `C=C1[C@@H](O)[C@@H]2O[C@]3(CC[C@H](/C=C/[C@@H](C)[C@@H]4CC(C)=C[C@@]5(O[C@H](C[C@@](C)(O)C(=O)O)CC[C@H]5O)O4)O3)CC[C@H]2O[C@@H]1[C@@H](O)C[C@H](C)[C@H]1O[C@@]2(CCCCO2)CC[C@H]1C` [OA, okadaic acid], the “baseline phosphorylation of PDE4D3 Ser-54” value with PDE4D3 Ser-54 is reported as “increase in the baseline phosphorylation of PDE4D3 Ser-54”. The “baseline phosphorylation of SRF Ser^103” value with SRF Ser^103 is “promoted baseline phosphorylation of SRF Ser^103”. Besides, in the test with mAKAP-bound PDE4D3, the “mAKAP-bound PDE4D3 activity, Fsk and OA treatment together” value is listed as “synergistically increased PDE4D3 activity”. In test [2] (10 nM OA with 50 nM PKI), the “increase in mAKAP-associated phosphodiesterase activity when PKA was also inhibited” value is reported as 60%. For the same compound, the “increase in mAKAP-associated phosphodiesterase activity” value in test [2] (10 nM OA, native complexes from adult rat heart) amounted to 30%. Also, the “inhibition of mAKAP-associated phosphatase activity” value in test [3] was “all immunoprecipitated phosphatase activity was inhibited”.
